Data taken from ChEMBL document CHEMBL4715700, “Growth inhibitory effect of D-arabinose against the nematode Caenorhabditis elegans: Discovery of a novel bioactive monosaccharide” (Bioorg Med Chem Lett, 2016).
Calls of active or inactive are those of the source. The calls are words filed in the database; no cut-off is given here.

Experiments:
Caenorhabditis elegans [1] = assay: Growth inhibition of Caenorhabditis elegans N2 L1 larvae under monoxenic condition with Escherichia coli food assessed as reduction in body size at 42 mM incubated for 72 hrs by microscopic method relative to control; assay type: functional
Caenorhabditis elegans [2] = assay: Growth inhibition of Caenorhabditis elegans N2 L1 larvae under monoxenic condition assessed as reduction in body size at 42 mM incubated for 72 hrs by microscopic method relative to control; assay type: functional, organism-based; conditions: for IC50: N2, 72 h
Caenorhabditis elegans [3] = assay: Growth inhibition of Caenorhabditis elegans N2 L1 larvae under axenic condition assessed as reduction in body size at 16 mM incubated for 7 days by microscopic method relative to control; assay type: functional; set-up: scale not given: the % may be the effect or the level left; conditions: time 7 day
Caenorhabditis elegans [4] = assay: Growth inhibition of Caenorhabditis elegans N2 assessed as reduction in body size at 10 mM in presence of 125 mM D-glucose by microscopic method; assay type: functional, organism-based
Caenorhabditis elegans [5] = assay: Growth inhibition of Caenorhabditis elegans N2 L1 larvae under monoxenic condition with Escherichia coli food assessed as reduction in motility at 42 mM incubated for 72 hrs by microscopic method relative to control; assay type: functional, organism-based
Caenorhabditis elegans [6] = assay: Growth inhibition of Caenorhabditis elegans N2 assessed as reduction in body size at 10 mM in presence of D-fructose by microscopic method; assay type: functional, organism-based
Caenorhabditis elegans [7] = assay: Growth inhibition of Caenorhabditis elegans N2 assessed as reduction in body size at 10 mM in presence of D-ribose by microscopic method; assay type: functional, organism-based
[8] = Toxicity in Caenorhabditis elegans N2 under monoxenic condition with Escherichia coli food assessed as mortality at 42 mM incubated for 72 hrs by microscopic method relative to control; conditions: 42000 µM

## O=C[C@H](O)[C@@H](O)[C@H](O)CO
Caenorhabditis elegans [1]
  Activity: inactive

## OC1OC[C@H](O)[C@@H](O)[C@H]1O (stereo partly drawn)
Caenorhabditis elegans [1]
  Activity: inactive

## OC[C@H]1OC(O)C[C@@H](O)[C@@H]1O (stereo partly drawn)
Caenorhabditis elegans [2]
  IC50: 19.5 mM

## OC[C@@H]1OC(O)[C@@H](O)[C@H]1O (stereo partly drawn)
Caenorhabditis elegans [1]
  Activity: inactive

## OC[C@H]1OC(O)[C@H](O)[C@@H]1O (stereo partly drawn)
Caenorhabditis elegans [1]
  Activity: inactive

## OC[C@@H](O)C(O)[C@H](O)CO
Caenorhabditis elegans [1]
  Activity: inactive

## OC1OC[C@@H](O)[C@@H](O)[C@@H]1O (stereo partly drawn) [D-ARABINOSE]
Caenorhabditis elegans [3]
  Activity: 15.2%
Caenorhabditis elegans [1]
  Activity: 7.8%
Caenorhabditis elegans [4]
  Activity: Active
Caenorhabditis elegans [5]
  Activity: Active
Caenorhabditis elegans [6]
  Activity: inactive
Caenorhabditis elegans [7]
  Activity: inactive
Caenorhabditis elegans [2]
  Activity: Dose-dependent effect
  IC50: 7.5 mM
[8]
  Activity: Non-Toxic

## OC1OC[C@H](O)[C@H](O)[C@H]1O (stereo partly drawn)
Caenorhabditis elegans [1]
  Activity: inactive

## OC1OC[C@H](O)[C@@H](O)[C@@H]1O (stereo partly drawn)
Caenorhabditis elegans [1]
  Activity: inactive

## OC1OC[C@@H](O)[C@H](O)[C@@H]1O (stereo partly drawn)
Caenorhabditis elegans [1]
  Activity: inactive
